The values below are quoted from earlier work in article PMC12032770 (Journal of Experimental & Clinical Cancer Research : CR, 2025).

The data set deals with αvβ3 and αvβ5 integrin receptors. The note with it: at low doses. The text has this:
The αvβ3 and αvβ5 integrin receptors are strongly overexpressed on proangiogenic endothelial cells, including those that form tumor-associated blood vessels in GBM, and inhibitors targeting these integrins, such as the cyclic peptide cilengitide (CIL), act as anti-angiogenic agents.

Regarding cilengitide, the “effect on tumor vasculature” value is recorded as “vascular normalization”.
